“Also recorded” adds a separate entry of the source.
Key:
[1] = tested on: bone marrow cells; test: Bone marrow cell proliferation in vitro ([3H]-thymidine incorporation assay); assay type: cell-based, C57BL/6J mice
Description: All drugs were purchased from Sigma Chemical Co. St. Louis, Mo. Adenosine was dissolved in water and kept as a stock solution in a concentration of 1 mM. For in vitro studies, dilutions in RPMI medium were carried out and final concentrations of 100, 50, 25, 10 and 5 μM were used. For in vivo studies, the stock solution was diluted with PBS to a concentration of […] and 0.5 ml was injected intraperitoneally to mice. 1,3-dipropyl-8-cyclopentylxanthine (DPCPX), an adenosine A1 receptor antagonist, 3,7-dimethyl-1-propargyl-xanthine (DMPX) an A2 receptor antagonist and N-cyclopentyladenosine (CPA), a selective A1 receptor agonist were added to a culture of proliferating bone marrow cells.
Bone marrow cells were obtained from the femur of C57BL/6J mice. Cells were disaggregated by passing through a 25G needle. [^3H]-Thymidine incorporation assay was used to evaluate the proliferative capability of the bone marrow cells.
Cells (3×10^4/well were incubated with RPMI medium, containing 10% fetal calf serum (FCS) (Biological Industries, Beit Haemek, Israel) and adenosine, adenosine antagonists or the agonist in 96 microtiter plates for 48 h. Cultures containing cells were suspended in RPMI medium and 10% FCS served as controls. In the last 6 hours of incubation, each well was pulsed with 1 μCi [^3H]-thymidine. Cells were harvested and the ^3[H]-thymidine uptake was determined in an LKB liquid scintillation counter (LKB, Piscataway, N.J., USA).

[2] = tested on: G-CSF; test: In vivo serum G-CSF level by ELISA after chemotherapy; parameters: species or system ICR mice; settings: for G-CSF (pgr/ml): serum, CPA 6 μg/kg per os 48 h and 72 h after chemotherapy where given, male ICR mice
Description: Male ICR mice of the age of two months and weighing an average of 25 gr were employed. The mice were purchased from Harlan Laboratories, Jerusalem, […]. Protection of CPA-treated mice against myelotoxic effects of chemotherapy was evaluated. To this end, mice were provided with a chemotherapeutic drug, a combination of the drug with CPA or with a vehicle only. […] In particular, three test groups of mice were treated daily according to the following regimen: 1. Control group-vehicle only. 2. Chemotherapy-CYP (50 mg/kg body weight). 3. Chemotherapy+chemoprotection-CYP (50 mg/kg body weight)+CPA (6 μg/kg body weight, given through per os administration, 48 h and 72 h following chemotherapy treatment). To test the myeloprotective effect of CPA, blood samples were withdrawn from the above-mentioned groups 96 h, 120 h and 144 h following treatment with CYP, the following measurements were taken. G-CSF level-granulocyte colony stimulating factor (G-CSF) level in the serum was determined by the use of a commercial ELISA kit (R&D Systems). G-CSF activity was expressed in pgr/ml according to a standard curve of recombinant G-CSF supplied by R&D Systems.

[3] = tested on: white blood cells (WBC) and neutrophils; test: In vivo protection against myelotoxic effects of chemotherapy: blood cell count (Coulter counter, differential counts); parameters: species or system ICR mice; settings: for Neutrophils (no.) / WBC (no.): blood, CPA 6 μg/kg per os 48 h and 72 h where given; for Neutrophils (no.): control level 1200; for WBC (no.): control level 6100
Description: Male ICR mice of the age of two months and weighing an average of 25 gr were employed. The mice were purchased from Harlan Laboratories, Jerusalem, […]. Protection of CPA-treated mice against myelotoxic effects of chemotherapy was evaluated. To this end, mice were provided with a chemotherapeutic drug, a combination of the drug with CPA or with a vehicle only. […] In particular, three test groups of mice were treated daily according to the following regimen: 1. Control group-vehicle only. 2. Chemotherapy-CYP (50 mg/kg body weight). 3. Chemotherapy+chemoprotection-CYP (50 mg/kg body weight)+CPA (6 μg/kg body weight, given through per os administration, 48 h and 72 h following chemotherapy treatment). To test the myeloprotective effect of CPA, blood samples were withdrawn from the above-mentioned groups 96 h, 120 h and 144 h following treatment with CYP, the following measurements were taken. Blood cell count-Blood cell count was carried out in a Coulter counter and differential cell counts were performed on smear preparations stained with May-Grunvald-Giemsa solution. Serum was separated from the whole blood and was kept at -70° C.

[4] = tested on: bone marrow cells; settings: adenosine 10-50 μM, concentration dependent; cited from earlier work

Structure (SMILES): OC[C@H]1O[C@@H](n2cnc3c(NC4CCCC4)ncnc32)[C@H](O)[C@@H]1O [CPA, N-cyclopentyladenosine]
- stimulation of bone marrow cell proliferation ([1]; concentrations of 0.1 and 0.01 μM, FIG 2): statistically significant stimulation
- level of G-CSF (summary in words) ([2]; combined treatment versus CYP only, CPA given orally to mice): induces in vivo G-CSF production
- in vivo protection against myelotoxicity of chemotherapeutic drugs ([3]; mice given CYP 50 mg/kg, CPA 6 μg/kg per os): provides in vivo protection against myelotoxicity; also recorded: acts as a chemoprotective agent

Structure (SMILES): O=P1(N(CCCl)CCCl)NCCCO1 (stereo not shown) [CYP, cyclophosphamide]
- G-CSF (pgr/ml) ([2]; 96 hrs after CYP 50 mg/kg): 511.30 pgr/ml
- G-CSF (pgr/ml) ([2]; 120 hrs after CYP 50 mg/kg): 333.03 pgr/ml
- G-CSF (pgr/ml) ([2]; 144 hrs after CYP 50 mg/kg): 871.14 pgr/ml
- number of leukocytes and neutrophils (summary in words) ([3]; CYP only versus control, combined treatment versus CYP only): reduce significantly
- Neutrophils (no.) ([3]; 96 hrs after CYP 50 mg/kg): 377 no.
- WBC (no.) ([3]; 96 hrs after CYP 50 mg/kg): 2620 no.
- Neutrophils (no.) ([3]; 120 hrs after CYP 50 mg/kg): 490 no.
- WBC (no.) ([3]; 120 hrs after CYP 50 mg/kg): 2800 no.
- Neutrophils (no.) ([3]; 144 hrs after CYP 50 mg/kg): 1326 no.
- WBC (no.) ([3]; 144 hrs after CYP 50 mg/kg): 3900 no.

Structure (SMILES): C#CCn1c(=O)c2c(ncn2C)n(C)c1=O [DMPX, 3,7-dimethyl-1-propargyl-xanthine]
- effect on bone marrow cell proliferation ([1]; 0.1 μM, given without or with adenosine, FIG 1): induced a stimulatory effect

Structure (SMILES): CCCn1c(=O)c2[nH]c(C3CCCC3)nc2n(CCC)c1=O [DPCPX, 1,3-dipropyl-8-cyclopentylxanthine]
- effect on adenosine-stimulated bone marrow cell proliferation ([1]; 0.1 μM, with adenosine, FIG 1): significantly reversed the stimulatory effect of adenosine

Structure (SMILES): Nc1ncnc2c1ncn2[C@@H]1O[C@H](CO)[C@@H](O)[C@H]1O [adenosine]
- 3[H]-thymidine incorporation of bone marrow cells [4]: stimulated

Source: US6790839B2, “Pharmaceutical administration of adenosine agonists” (Can-Fite Biopharma Ltd., priority 1999, dated 2004)
